Measured values from patent US6765004B1, “Indoloazepines as vasopressin receptor antagonists” (priority 1999, dated 2004).

How the values were obtained:
[1] = system: vasopressin-induced hypertension; experiment: Reversal of vasopressin-induced hypertension in rats, intraduodenal single dose; assay type: in vivo, Male Long Evans rats; conditions: ID dose 10 mg/kg, anesthetized rats, maximum percent reversal within 60 min
Description: Reversal of Vasopressin-Induced Hypertension in Rats
The anti-hypertensive activity of compounds was screened in an anesthetized model of vasopressin-induced hypertension. Male Long Evans, normotensive rats of between 350 and 450 g in body weight were anesthetized with pentobarbital (35 mg/kg, ip) and maintained throughout the procedure with an ip infusion of 10 mg/kg/hr. Arginine vasopressin was infused at 30 ng/kg/min, iv, to induce a stable hypertensive state (ca. 50 mmHg increase in mean arterial blood pressure). Compounds of interest were administered in an ascending dose fashion and the maximum decrease in mean arterial blood pressure was recorded. An ED50 was determined from the linear portion of the dose-response relationship for each animal.
This model was modified slightly to assess the bioavailability of compounds of interest. Rather than dosing the animals iv in an ascending dose fashion, a single dose per animal was administered directly into the duodenum. The anti-hypertensive effects were then monitored for 60 min and the maximum percent reversal was calculated.

[2] = molecular target: T1, human V-1 receptor (Homo sapiens, UniProt P37288); experiment: In vitro recombinant vasopressin receptor binding assay (V-1), displacement of 3H-arginine vasopressin; parameters: unit of the concentration uncertain; conditions: at 0.1 (unit uncertain) as printed in cell; cloned human V-1 receptor membranes, HEK-293
T1 construct: expressed in transfected cells; host or cells: HEK-293
Description: (§1) In Vitro Recombinant Vasopressin Receptor Binding Assay
(§2) Compounds were assessed for their ability to displace ^3H-arginine vasopressin from the human V-1 or V-2 receptor in HEK-293 cells. […] Into wells of 96-well round bottom polypropylene plates were added buffer, test compound, membrane (containing cloned human V-1 or V-2 receptor), and ^3H-vasopressin. The reaction plates were allowed to sit at rt for 1 h. The samples were filtered through Unifilter GF/C plates presoaked in 0.3 polyethyleneimine). The plates were washed 5 times with cold physiological saline containing 0.05% Tween 20. After drying, the bottom of the filter plates were sealed and 0.025 ml of Microscint-20 was added to each filter. The top of the plate was sealed, and the plate was counted.

[3] = molecular target: T2, human V-2 receptor (Homo sapiens, UniProt P30518); experiment: In vitro recombinant vasopressin receptor binding assay (V-2), displacement of 3H-arginine vasopressin; parameters: dose or concentration left out as unconfirmed; conditions: cloned human V-2 receptor membranes, HEK-293
T2 construct: expressed in transfected cells; host or cells: HEK-293
Description: as §1, §2

T1 sequence (P37288 whole entry): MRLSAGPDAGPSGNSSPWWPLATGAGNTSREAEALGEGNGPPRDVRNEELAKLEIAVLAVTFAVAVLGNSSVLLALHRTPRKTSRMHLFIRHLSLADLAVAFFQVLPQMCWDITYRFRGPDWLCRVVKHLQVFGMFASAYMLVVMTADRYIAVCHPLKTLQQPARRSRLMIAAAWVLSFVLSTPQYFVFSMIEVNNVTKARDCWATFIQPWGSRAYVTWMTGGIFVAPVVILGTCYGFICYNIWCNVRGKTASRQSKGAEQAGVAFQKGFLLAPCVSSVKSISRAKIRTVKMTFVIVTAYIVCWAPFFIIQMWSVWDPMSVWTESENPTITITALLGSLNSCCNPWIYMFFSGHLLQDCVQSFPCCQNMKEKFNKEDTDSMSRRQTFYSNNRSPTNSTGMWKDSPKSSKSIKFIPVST
T2 sequence (P30518 whole entry): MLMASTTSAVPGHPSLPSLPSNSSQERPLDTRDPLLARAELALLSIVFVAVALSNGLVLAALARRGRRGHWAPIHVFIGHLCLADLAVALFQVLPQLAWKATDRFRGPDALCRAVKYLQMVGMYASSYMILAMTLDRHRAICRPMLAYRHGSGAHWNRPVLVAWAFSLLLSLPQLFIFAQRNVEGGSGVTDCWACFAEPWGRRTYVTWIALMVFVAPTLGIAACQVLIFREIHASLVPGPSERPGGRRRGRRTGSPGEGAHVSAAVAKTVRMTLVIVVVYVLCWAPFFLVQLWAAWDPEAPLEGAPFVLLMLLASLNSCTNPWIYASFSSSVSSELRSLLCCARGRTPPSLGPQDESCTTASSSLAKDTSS

## O=C(Nc1ccc(C(=O)N2CCCC3C(=O)Nc4cccc2c43)cc1)c1ccccc1-c1ccccc1 (centres unmarked) [Compound 15, 6-[4-[[(2-Biphenyl-)carbonyl]amino]benzoyl]-3,4,5,6-tetrahydro-1H-azepino[4,3,2-cd]-2-indolone]
[1]
  BP Reduction (%): 23%

## O=C(Nc1ccc(C(=O)N2CCCc3c(S(=O)(=O)O)[nH]c4cccc2c34)c(Cl)c1)c1ccccc1-c1ccccc1 [Compound 19, 6-[4-[[(2-Biphenyl-)carbonyl]amino]2-chlorobenzoyl]-3,4,5,6-tetrahydro-1 H-azepino (4,3,2-cd]indole-2-sulfonic acid]
[2]
  V1 Bdg (%): 4% (0.1 M)
[1]
  BP Reduction (%): 23%

## Cc1occc1C(=O)Nc1ccc(C(=O)N2CCCc3c[nH]c4cccc2c34)cc1 [Compound 12, 6-[4-[[(2-Methyl-3-furanyl)carbonyl]amino]benzoyl]-3,4,5,6-tetrahydro-1H-azepino[4,3,2-cd]indole]
[3]
  V2 Bdg (%): 24% (1.0 M)

## CN(C)Cc1[nH]c2cccc3c2c1CCCN3C(=O)c1ccc(NC(=O)c2ccccc2-c2ccccc2)cc1 [Compound 17, 6-[4-[[(2-Biphenyl-)carbonyl]amino]benzoyl]-2-(N, N-dimethylaminomethyl)-3,4,5,6-tetrahydro-1 H-azepino[4,3,2-cd]indole]
[2]
  V1 Bdg (%): 6% (0.1 M)

## O=C(Nc1ccc(C(=O)N2CCCc3c[nH]c4cccc2c34)cc1)c1ccccc1-c1ccccc1 [Compound 10, 6-[4-[[(2-Biphenyl-)carbonyl]amino]benzoyl]-3,4,5,6-tetrahydro-1H-azepino[4,3,2-cd]indole]
[1]
  BP Reduction (%): 17%

## O=C(Nc1ccc(C(=O)N2CCCc3c(S(=O)(=O)O)[nH]c4cccc2c34)cc1)c1ccccc1-c1ccccc1 [Compound 18, 6-[4-[[(2-Biphenyl-)carbonyl]amino]benzoyl]-3,4,5,6-tetrahydro-1H-azepino[4,3,2-cd]indole-2-sulfonic acid]
[2]
  V1 Bdg (%): 0% (0.1 M)
[1]
  BP Reduction (%): 13%
